From patent US11708344B2, “Flavone derivatives for the treatment and prophylaxis of hepatitis B virus disease” (Hoffmann-La Roche Inc., priority 2018, dated 2023)
Like-named read-outs stand apart in the source and are kept apart here.

What was measured:
[1] = tested on: HBeAg (surrogate marker for cccDNA) in HepDES19 cells; assay: Engineered HepDES19 primary screen assay (HBeAg ELISA); type: cell-based, HBV
Procedure, shortened: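 HepDES19 cells were induced by Tet withdrawal for 8 days, then treated with half-log compound dilutions (1% DMSO final) for 5 days at 37 °C. HBeAg was measured by ELISA as the cccDNA surrogate, viability by CCK-8, and IC50 from a 4-parameter logistic fit.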

[2] = Human microsome stability assay; type: in vitro ADME; conditions: human liver microsomes, 1 μM test compound, 0.5 mg/mL microsomal protein, 37° C., pH 7.4, 0-30 minutes
Procedure, shortened: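 Compound (1 μM) incubated at 37 °C with human liver microsomes (0.5 mg/mL protein) in 100 mM potassium phosphate, pH 7.4, after 10 min preincubation; started with NADPH regenerating system. Sampled at 0–30 min, quenched with cold ACN; remaining parent quantified by LC-MS/MS, with no-NADPH controls.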

[3] = Hepatitis B virus, HepDES19, 120 h, read-out: IC50 (HBeAg level, HepDES19 primary screen assay), HepDES19 cells, 5 days compound incubation, HBeAg ELISA

**Q.** For `COC(=O)C1CC(OCCOc2cc(Br)ccc2-c2cc(=O)c3cccc(Cl)c3o2)C1` (stereo not shown) [Example C003a, methyl 3-[2-[5-bromo-2-(8-chloro-4-oxo-chromen-2-yl)phenoxy]ethoxy]cyclobutanecarboxylate], which IC50 [1, 3] is on record?
**A.** 0.4 µM

**Q.** And the “Clearance of Human microsome” value [2]?
**A.** 6.15 mL/min/kg

**Q.** With `CS(=O)(=O)NC(=O)[C@H]1C[C@@H](Oc2cc(Br)ccc2-c2cc(=O)c3cccc(Cl)c3o2)C1` [Example B044-A, cis-3-[5-bromo-2-(8-chloro-4-oxo-chromen-2-yl)phenoxy]-N-methylsulfonyl-cyclobutanecarboxamide] as the compound, how does the IC50 [1, 3] read?
**A.** 4.62 µM

**Q.** What about the “Clearance of Human microsome” value [2] of the same compound?
**A.** 6.15 mL/min/kg

**Q.** With `CS(=O)(=O)NC(=O)[C@H]1C[C@@H](OCCOc2cc(C(F)(F)F)ccc2-c2cc(=O)c3cccc(Cl)c3o2)C1` [Example C121, Cis-3-[2-[2-(8-chloro-4-oxo-chromen-2-yl)-5-(trifluoromethyl)phenoxy]ethoxy]-N-methylsulfonyl-cyclobutanecarboxamide] as the compound, how does the IC50 [1, 3] read?
**A.** 5.89 µM

**Q.** What about the “Clearance of Human microsome” value [2] of the same compound?
**A.** 8.68 mL/min/kg

**Q.** With `O=c1cc(-c2ccccc2OCCO[C@H]2C[C@H](C(=O)O)C2)oc2c(C(F)(F)F)cccc12` [Example C047-B, Trans-3-[2-[2-[4-oxo-8-(trifluoromethyl)chromen-2-yl]phenoxy]ethoxy]cyclobutanecarboxylic acid] as the compound, how does the IC50 [1, 3] read?
**A.** 14 µM

**Q.** And the “Clearance of Human microsome” value [2]?
**A.** 6.15 mL/min/kg

**Q.** What does the source list for `Cc1cc(-c2cc(=O)c3cccc(Cl)c3o2)c(O[C@H]2C[C@@H](C(=O)NS(C)(=O)=O)C2)cc1Br` [Example B049-A, Cis-3-[5-bromo-2-(8-chloro-4-oxo-chromen-2-yl)-4-methyl-phenoxy]-N-methylsulfonyl-cyclobutanecarboxamide]?
**A.** IC50 [1, 3]: 12.2 µM; Clearance of Human microsome [2]: 7.5 mL/min/kg

**Q.** Which IC50 [1, 3] does the source give for `O=C(O)[C@H]1C[C@@H](Oc2cc(C(F)(F)F)ccc2-c2cc(=O)c3cccc(Cl)c3o2)CN1S(=O)(=O)c1ccccc1` [Example B088, (2R,4R)-1-(benzenesulfonyl)-4-[2-(8-chloro-4-oxo-chromen-2-yl)-5-(trifluoromethyl)phenoxy]pyrrolidine-2-carboxylic acid] here?
**A.** 1.85 µM

**Q.** And the “Clearance of Human microsome” value [2]?
**A.** 6.15 mL/min/kg

**Q.** With `O=c1cc(-c2ccc(C(F)(F)F)cc2O[C@H]2C[C@@H](C(=O)NS(=O)(=O)C3CC3)C2)oc2c(Cl)cccc12` [Example B043-A, cis-3-[2-(8-chloro-4-oxo-chromen-2-yl)-5-(trifluoromethyl)phenoxy]-N-cyclopropylsulfonyl-cyclobutanecarboxamide] as the compound, how does the IC50 [1, 3] read?
**A.** 1.4 µM

**Q.** What about the “Clearance of Human microsome” value [2] of the same compound?
**A.** 6.15 mL/min/kg

**Q.** With `Cc1ccc(-c2cc(=O)c3cccc(Cl)c3o2)c(OCCCC(=O)O)c1` [Example A059, 4-[2-(8-chloro-4-oxo-chromen-2-yl)-5-methyl-phenoxy]butanoic acid] as the compound, how does the IC50 [1, 3] read?
**A.** 0.622 µM

**Q.** What about the “Clearance of Human microsome” value [2] of the same compound?
**A.** 8.34 mL/min/kg

**Q.** What does the source list for `O=c1cc(-c2cc(F)c(Br)cc2OCCO[C@H]2C[C@H](C(=O)O)C2)oc2c(Cl)cccc12` [Example C044-B, Trans-3-[2-[5-bromo-2-(8-chloro-4-oxo-chromen-2-yl)-4-fluoro-phenoxy]ethoxy]cyclobutanecarboxylic acid]?
**A.** IC50 [1, 3]: 1.57 µM; Clearance of Human microsome [2]: 9.33 mL/min/kg

**Q.** For `O=c1cc(-c2cc(OC(F)F)c(OC(F)F)cc2OCCO[C@H]2C[C@@H](C(=O)O)C2)oc2c(Cl)cccc12` [Example C087, cis-3-[2-[2-(8-chloro-4-oxo-chromen-2-yl)-4,5-bis(difluoromethoxy)phenoxy]ethoxy]cyclobutanecarboxylic acid], which IC50 [1, 3] is on record?
**A.** 6.35 µM

**Q.** And the “Clearance of Human microsome” value [2]?
**A.** 6.15 mL/min/kg

**Q.** Which IC50 [1, 3] does the source give for `CCc1ccc(-c2cc(=O)c3cccc(Cl)c3o2)c(O[C@H]2C[C@H](C(=O)O)C2)c1` [Example B019-B, Trans-3-[2-(8-chloro-4-oxo-chromen-2-yl)-5-ethyl-phenoxy]cyclobutanecarboxylic acid] here?
**A.** 3.63 µM

**Q.** What about the “Clearance of Human microsome” value [2] of the same compound?
**A.** 8.92 mL/min/kg

**Q.** Which results are given for `CS(=O)(=O)NC(=O)[C@H]1C[C@H](Oc2cc(Br)ccc2-c2cc(=O)c3cccc(Cl)c3o2)C1` [Example B044-B, trans-3-[5-bromo-2-(8-chloro-4-oxo-chromen-2-yl)phenoxy]-N-methylsulfonyl-cyclobutanecarboxamide]?
**A.** IC50 [1, 3]: 3.72 µM; Clearance of Human microsome [2]: 6.15 mL/min/kg

**Q.** What does the source list for `Cc1cc(-c2cc(=O)c3cccc(Cl)c3o2)c(OCC(C)(C)C(=O)O)cc1Cl` [Example A064, 3-[5-chloro-2-(8-chloro-4-oxo-chromen-2-yl)-4-methyl-phenoxy]-2,2-dimethyl-propanoic acid]?
**A.** IC50 [1, 3]: 9.59 µM; Clearance of Human microsome [2]: 9.5 mL/min/kg

**Q.** Which results are given for `Cc1ccc(OCCO[C@H]2C[C@H](C(=O)O)C2)c(-c2cc(=O)c3cccc(Cl)c3o2)c1` [Example C050-B, Trans-3-[2-[2-(8-chloro-4-oxo-chromen-2-yl)-4-methyl-phenoxy]ethoxy]cyclobutanecarboxylic acid]?
**A.** IC50 [1, 3]: 0.137 µM; Clearance of Human microsome [2]: 6.15 mL/min/kg

**Q.** With `Cc1cc(-c2cc(=O)c3cccc(Cl)c3o2)c(OCC(=O)N2CCC[C@H]2C(=O)O)cc1Br` [Example A080, (2S)-1-[2-[5-bromo-2-(8-chloro-4-oxo-chromen-2-yl)-4-methyl-phenoxy]acetyl]pyrrolidine-2-carboxylic acid] as the compound, how does the IC50 [1, 3] read?
**A.** 17.5 µM

**Q.** And the “Clearance of Human microsome” value [2]?
**A.** 6.15 mL/min/kg

**Q.** For `COc1cc(OCCO[C@H]2C[C@@H](C(=O)O)C2)c(-c2cc(=O)c3cccc(Cl)c3o2)cc1Br` [Example C040-A, Cis-3-[2-[4-bromo-2-(8-chloro-4-oxo-chromen-2-yl)-5-methoxy-phenoxy]ethoxy]cyclobutanecarboxylic acid], which IC50 [1, 3] is on record?
**A.** 13.2 µM

**Q.** And the “Clearance of Human microsome” value [2]?
**A.** 8.52 mL/min/kg

**Q.** For `CC(C)(COc1cc(OC(F)(F)F)ccc1-c1cc(=O)c2cccc(Cl)c2o1)C(=O)O` [Example A061, 3-[2-(8-chloro-4-oxo-chromen-2-yl)-5-(trifluoromethoxy)phenoxy]-2,2-dimethyl-propanoic acid], which IC50 [1, 3] is on record?
**A.** 15.9 µM

**Q.** What about the “Clearance of Human microsome” value [2] of the same compound?
**A.** 8.78 mL/min/kg

**Q.** For `COc1ccc(O[C@H]2C[C@H](C(=O)O)C2)c(-c2cc(=O)c3cccc(Cl)c3o2)c1` [Example B021, Trans-3-[2-(8-chloro-4-oxo-chromen-2-yl)-4-methoxy-phenoxy]cyclobutanecarboxylic acid], which IC50 [1, 3] is on record?
**A.** 3.06 µM

**Q.** What about the “Clearance of Human microsome” value [2] of the same compound?
**A.** 6.15 mL/min/kg

**Q.** With `COc1cc(OCCOCC(=O)O)c(-c2cc(=O)c3cccc(Cl)c3o2)cc1OC` [Example C022, 2-[2-[2-(8-chloro-4-oxo-chromen-2-yl)-4,5-dimethoxy-phenoxy]ethoxy]acetic acid] as the compound, how does the IC50 [1, 3] read?
**A.** 5.53 µM

**Q.** What about the “Clearance of Human microsome” value [2] of the same compound?
**A.** 6.15 mL/min/kg

**Q.** With `O=C(O)COCCOc1cc(C(F)(F)F)ccc1-c1cc(=O)c2cccc(Cl)c2o1` [Example C005, 2-[2-[2-(8-chloro-4-oxo-chromen-2-yl)-5-(trifluoromethyl)phenoxy]ethoxy]acetic acid] as the compound, how does the IC50 [1, 3] read?
**A.** 17.7 µM

**Q.** What about the “Clearance of Human microsome” value [2] of the same compound?
**A.** 8.08 mL/min/kg

**Q.** For `O=c1cc(-c2ccccc2OCCO[C@H]2C[C@H](C(=O)O)C2)oc2c(Br)cccc12` [Example C046-B, Trans-3-[2-[2-(8-bromo-4-oxo-chromen-2-yl)phenoxy]ethoxy]cyclobutanecarboxylic acid], which IC50 ([1]; read-out: IC50 (HBeAg level, HepDES19 primary screen assay), HepDES19 cells, 5 days compound incubation, HBeAg ELISA) is on record?
**A.** 0.251 µM

**Q.** What about the “Clearance of Human microsome” value [2] of the same compound?
**A.** 6.15 mL/min/kg

**Q.** Which results are given for `COc1cc(-c2cc(=O)c3cccc(Cl)c3o2)c(O[C@H]2C[C@@H](C(=O)NS(=O)(=O)C3CC3)C2)cc1Br` [Example B054, Cis-3-[5-bromo-2-(8-chloro-4-oxo-chromen-2-yl)-4-methoxy-phenoxy]-N-cyclopropylsulfonyl-cyclobutanecarboxamide]?
**A.** IC50 [1, 3]: 1.65 µM; Clearance of Human microsome [2]: 6.15 mL/min/kg

**Q.** With `Cc1cc(Br)c(OCCC(=O)O)c(-c2cc(=O)c3cccc(Cl)c3o2)c1` [Example A018, 3-[2-bromo-6-(8-chloro-4-oxo-chromen-2-yl)-4-methyl-phenoxy]propanoic acid] as the compound, how does the IC50 [1, 3] read?
**A.** 3.32 µM

**Q.** And the “Clearance of Human microsome” value [2]?
**A.** 6.15 mL/min/kg

**Q.** For `O=c1cc(-c2cccc(F)c2OCCO[C@H]2C[C@@H](C(=O)O)C2)oc2c(Cl)cccc12` [Example C037-A, Cis-3-[2-[2-(8-chloro-4-oxo-chromen-2-yl)-6-fluoro-phenoxy]ethoxy]cyclobutanecarboxylic acid], which IC50 [1, 3] is on record?
**A.** 0.0975 µM

**Q.** And the “Clearance of Human microsome” value [2]?
**A.** 6.15 mL/min/kg

**Q.** Which IC50 [1, 3] does the source give for `O=c1cc(-c2ncc(Br)cc2OCCO[C@H]2C[C@H](C(=O)O)C2)oc2c(Cl)cccc12` [Example C027] here?
**A.** 1.8 µM

**Q.** And the “Clearance of Human microsome” value [2]?
**A.** 6.15 mL/min/kg

**Q.** For `O=C(O)CCOc1cc(C(F)(F)F)ccc1-c1oc2c(Cl)cccc2c(=O)c1O` [Example A046, 3-[2-(8-chloro-3-hydroxy-4-oxo-chromen-2-yl)-5-(trifluoromethyl)phenoxy]propanoic acid], which IC50 [1, 3] is on record?
**A.** 7.86 µM

**Q.** And the “Clearance of Human microsome” value [2]?
**A.** 6.15 mL/min/kg

**Q.** Which IC50 [1, 3] does the source give for `NS(=O)(=O)CCCOc1cc(C(F)(F)F)ccc1-c1cc(=O)c2cccc(Cl)c2o1` [Example B072, 3-[2-(8-chloro-4-oxo-chromen-2-yl)-5-(trifluoromethyl)phenoxy]propane-1-sulfonamide] here?
**A.** 0.95 µM

**Q.** What about the “Clearance of Human microsome” value [2] of the same compound?
**A.** 8.89 mL/min/kg

**Q.** For `O=c1cc(-c2cc(C(F)(F)F)c(Br)cc2OCCO[C@H]2C[C@@H](C(=O)O)C2)oc2c(Cl)cccc12` [Example C042-A], which IC50 [1, 3] is on record?
**A.** 12.7 µM

**Q.** What about the “Clearance of Human microsome” value [2] of the same compound?
**A.** 7.57 mL/min/kg

**Q.** Which IC50 [1, 3] does the source give for `O=C(O)[C@H]1C[C@H](Oc2cc(C(F)(F)F)ccc2-c2cc(=O)c3cccc(Cl)c3o2)CN1S(=O)(=O)c1ccccc1` [Example B087, (2R,4S)-1-(benzenesulfonyl)-4-[2-(8-chloro-4-oxo-chromen-2-yl)-5-(trifluoromethyl)phenoxy]pyrrolidine-2-carboxylic acid] here?
**A.** 3 µM

**Q.** And the “Clearance of Human microsome” value [2]?
**A.** 6.15 mL/min/kg
